{"source": "patent US20090011013A1", "about": "“Tacrolimus Combination Products” (LIFECYCLE PHARMA A/S, priority 2005, published 2009)", "key": {"[1]": {"details": "cited from earlier work"}, "[2]": {"experiment": "three-way crossover pilot bioavailability study of Prograf and Neoral combinations vs. Prograf", "assay_type": "in vivo, human"}, "[3]": {"details": "cited from earlier work", "remark": "listed apart in the source"}, "[4]": {"details": "oral, cited from earlier work"}, "[5]": {"details": "rats, cited from earlier work"}, "[6]": {"tested_on": "Canine Lung Allotransplantation", "details": "dogs, cited from earlier work"}}, "note": "Read-outs that look alike come from different tables or passages of the source.", "data": [{"smiles": "C=CC[C@@H]1/C=C(\\C)C[C@H](C)C[C@H](OC)[C@H]2O[C@@](O)(C(=O)C(=O)N3CCCC[C@H]3C(=O)O[C@H](/C(C)=C/[C@@H]3CC[C@@H](O)[C@H](OC)C3)[C@H](C)[C@@H](O)CC1=O)[C@H](C)C[C@@H]2OC", "note": "[Tacrolimus]", "values": [{"measurement": "bioavailability", "setting": "[1]; after oral administration", "result": "≤ 20", "unit": "%"}, {"measurement": "mean time-to-peak concentration (tmax)", "setting": "[1]; oral, healthy subjects or kidney or liver transplanted patients", "result": "1 to 2", "unit": "h"}, {"measurement": "increase in tacrolimus bioavailability", "setting": "[2]; tacrolimus and cyclosporine in a ratio of 1:20", "result": "above 100%"}, {"measurement": "increase of bioavailability of tacrolimus", "setting": "[2]; tacrolimus and cyclosporine in the ratio of 1:2", "result": 30, "unit": "%"}, {"measurement": "solubility in chloroform", "setting": "[3]; chloroform", "result": "very soluble"}, {"measurement": "solubility in ethanol", "setting": "[3]; ethanol", "result": "freely soluble"}, {"measurement": "solubility in methanol", "setting": "[3]; methanol", "result": "very soluble"}, {"measurement": "solubility in water", "setting": "[3]; water", "result": "practically insoluble"}, {"measurement": "time to reach peak", "setting": "[4]; most patients", "result": "≤ 1", "unit": "h"}, {"measurement": "time to reach peak", "setting": "[4]; some patients", "result": "≥ 4", "unit": "h"}, {"measurement": "hepatic extraction ratio", "setting": "[5]; calculated", "result": 60, "unit": "%"}, {"measurement": "intestinal extraction", "setting": "[5]; calculated", "result": 34, "unit": "%"}, {"measurement": "bioavailability", "setting": "[5]; intestinal administration", "result": "~25", "unit": "%"}, {"measurement": "bioavailability", "setting": "[5]; intraportal administration (infusion over 1 hour)", "result": "about 40%"}, {"measurement": "blood concentration of tacrolimus, combination vs alone at same dose", "setting": "[6]; group E vs group C", "result": "not significant higher"}, {"measurement": "immunosuppressive effect", "setting": "[6]; i.m. 0.03 mg/kg/day (suboptimal dose)", "result": "rejection"}, {"measurement": "immunosuppressive effect", "setting": "[6]; i.m. 0.1 mg/kg/day (optimal dose)", "result": "adequate immunosuppression"}]}]}
